According to US20220096515A1, “Methods and Formulations for Preventing Neurological or Psychiatric Disorders” (Huntington Medical Research Institutes, priority 2020, published 2022):

Tests used:
Type in all cases: in vivo, mouse
wildtype CD1 mice = test: Increasing dose regimen of NAD+ in wildtype CD1 mice, H&E of MGE; details: i.p.
Protocol: Histology, immunohistochemistry, and microscopic analysis: Paraffin immunohistochemistry (IHC) was performed on embryonic brains only while frozen section IHC was used on both embryonic and adult brains. Briefly, for paraffin IHC-E18 brains were fixed in zinc fixative (BD Biosciences PharMingen) for 24 h and processed for paraffin histology. Histological stainings with hematoxylin (Vector Laboratories) and eosin (Sigma) were performed on 8 μm coronal sections. Lectin histochemistry (with biotinylated isolectin B4, 1:50, Sigma) as well as IHC was performed on 20 μm sections. Primary antibodies used for IHC were as follows: anti-PHH3 (1:200, Millipore) and anti-NKX2.1, (1:50; Sigma) followed by secondary detection with AlexaFluor conjugates (Invitrogen). DAPI (Vector Laboratories) was used to label nuclei. For frozen section IHC, E18 and P90 brains were removed, fixed in 4% PFA for 24 hours, cryo-protected in sucrose gradient, embedded into OCT medium for frozen blocks; sectioned at 40 μm on a cryostat and immunostained with anti-GABA (1:80, Sigma) and anti -PROX1 (1:80, Millipore) antibodies. Twenty sections from each brain were used for IHC and histology experiments. Uniform penetration of antibodies or stains throughout the section was ascertained and quality of the staining in each digital section was examined. […]

P2X4 = P2X4 mRNA and protein expression in endothelial cells after prenatal treatment; details: after six-day treatment paradigm
Protocol: Primary culture of endothelial cells and endothelial cell staining: Embryonic brains were dissected under a stereo-microscope, after the NAD^+ treatment paradigm and the telencephalon was removed. Pial membranes were peeled off. Telencephalon without pial membranes from the periventricular region was pooled. Purity of endothelial cell cultures was established with endothelial cell markers and determined to be one hundred percent. Isolation and culture of endothelial cells were performed according to published methodology. Periventricular endothelial cells were prepared from CD1 (wild type), saline-treated Gabrb3^fl/fl, saline-treated Gabrb3^ECKO, and NAD^+-treated Gabrb3^ECKO embryos. […]
Quantitative real-time PCR: RT was performed by using iScript Reverse Transcription Supermix kit (Bio-Rad). […] The relative gene expression and subsequent fold changes among different samples were determined according to published methodology.
An important aspect that influences endothelial cell proliferation is Ca^2+ influx, which is important for cell cycle progression in the neocortex. […] Therefore, P2X4 expression at both mRNA and protein levels in periventricular endothelial cells were evaluated, prepared after the six-day saline and NAD^+ treatment paradigm (FIGS. 11J-11O). […]

[1] = system: Gabrb3^ECKO cerebral cortex; test: Adult (P90) cortex vessel densities and GABA cell counts after prenatal treatment
Protocol: Histology, immunohistochemistry, and microscopic analysis: Paraffin immunohistochemistry (IHC) was performed on embryonic brains only while frozen section IHC was used on both embryonic and adult brains. Briefly, for paraffin IHC-E18 brains were fixed in zinc fixative (BD Biosciences PharMingen) for 24 h and processed for paraffin histology. Histological stainings with hematoxylin (Vector Laboratories) and eosin (Sigma) were performed on 8 μm coronal sections. Lectin histochemistry (with biotinylated isolectin B4, 1:50, Sigma) as well as IHC was performed on 20 μm sections. […]
Morphometry: A stereological point grid was superimposed on digital images of biotinylated isolectin-B4+ vessels using ImageJ software. The ratio between points falling on blood vessels and on brain tissue was calculated for each section, and average values were obtained.
Cell counting: Profiles of GABA+ immunoreactive cells were counted in the prefrontal cortex (at bregma levels 1.5, 0.5 and −1.5) using stereotaxic coordinates from the atlas: The Mouse Brain in Stereotaxic Coordinates, by Paxinos and Franklin. For each area, cells in the strip of cortex from the pial surface to the white-gray matter interface were counted using ImageJ software and plotted. […]

NC(=O)c1ccc[n+]([C@@H]2O[C@H](COP(=O)([O-])OP(=O)(O)OC[C@H]3O[C@@H](n4cnc5c(N)ncnc54)[C@H](O)[C@@H]3O)[C@@H](O)[C@H]2O)c1 [NAD^+]
cell cluster in MGE (H&E) (wildtype CD1 mice; 10 mg, 20 mg and 40 mg per mouse): a similar cell cluster in the MGE
lowest effective dose (wildtype CD1 mice): 10 mg per mouse
P2X4 mRNA and protein expression (P2X4): its expression was rescued
GABAergic interneurons in adult cerebral cortex [1]: concurrent increase
blood vessel densities in adult cerebral cortex [1]: concurrent increase
